Calls of active or inactive are those of the source. The calls are words filed in the database; no cut-off is given here.
How the values were obtained:
[1] = Induction of mitotic cell cycle arrest in potoroo PtK2 cells assessed as accumulation of cells at SubG1 phase at 5 uM after 7 hrs by flow cytometry (Rvb= 2.4%); format: functional, Potorous tridactylus
[2] = Cytotoxicity against human A2780-1A9 cells; format: functional, cell-based
[3] = Induction of mitotic cell cycle arrest in potoroo PtK2 cells assessed as accumulation of cells at SubG1 phase at 100 nM after 24 hrs by flow cytometry (Rvb= 0.9%); format: functional, Potorous tridactylus
[4] = Induction of mitotic cell cycle arrest in human A2780AD cells assessed as accumulation of cells at G2+M phase at 100 nM after 24 hrs by flow cytometry (Rvb= 20.5%); format: functional, A2780 ADR
[5] = Induction of mitotic cell cycle arrest in potoroo PtK2 cells assessed as accumulation at S phase at 5 uM treated for 7 hrs, washed followed by 16 hrs incubation by flow cytometry (Rvb= 16%); format: functional, Potorous tridactylus
PtK2 [6] = test: Induction of micronucleation in potoroo PtK2 cells at 5 uM treated for 7 hrs followed by compound washout measured after 48 hrs by flow cytometry; format: functional, cell-based; details: Potorous tridactylus
[7] = Induction of mitotic cell cycle arrest in potoroo PtK2 cells assessed as accumulation of cells at G2+M phase at 2 uM treated for 7 hrs, washed followed by 16 hrs incubation by flow cytometry (Rvb= 23%); format: functional, Potorous tridactylus
[8] = Induction of mitotic cell cycle arrest in potoroo PtK2 cells assessed as accumulation of cells at G2+M phase at 2 uM after 7 hrs by flow cytometry (Rvb= 22.1%); format: functional, Potorous tridactylus
[9] = Induction of mitotic cell cycle arrest in potoroo PtK2 cells assessed as accumulation of cells at G2+M phase at 2 uM treated for 7 hrs, washed followed by 48 hrs incubation by flow cytometry (Rvb= 22.3%); format: functional, Potorous tridactylus
[10] = Induction of mitotic cell cycle arrest in potoroo PtK2 cells assessed as accumulation at S phase at 5 uM treated for 7 hrs, washed followed by 48 hrs incubation by flow cytometry (Rvb= 10.7%); format: functional, Potorous tridactylus
PtK2 [11] = test: Induction of microtubule bundle formation in potoroo PtK2 cells at 5 uM treated for 7 hrs followed by compound washout measured after 48 hrs by flow cytometry; format: cell-based; details: Potorous tridactylus
[12] = Induction of mitotic cell cycle arrest in potoroo PtK2 cells assessed as accumulation at S phase at 2 uM treated for 7 hrs, washed followed by 16 hrs incubation by flow cytometry (Rvb= 16%); format: functional, Potorous tridactylus
[13] = Induction of mitotic cell cycle arrest in potoroo PtK2 cells assessed as accumulation of cells at G2+M phase at 5 uM after 7 hrs by flow cytometry (Rvb= 22.1%); format: functional, Potorous tridactylus
[14] = Displacement of [3H]epothilone B from microtubule assessed as bound radioligand level at 20 uM treated after radioligand addition by competitive binding assay
[15] = Induction of mitotic cell cycle arrest in potoroo PtK2 cells assessed as accumulation of cells at G1/G0 phase at 5 uM treated for 7 hrs, washed followed by 48 hrs incubation by flow cytometry (Rvb= 65.8%); format: functional, Potorous tridactylus
[16] = Induction of mitotic cell cycle arrest in potoroo PtK2 cells assessed as accumulation of cells at G1/G0 phase at 100 nM after 24 hrs by flow cytometry (Rvb= 60.8%); format: functional, Potorous tridactylus
[17] = Displacement of [3H]paclitaxel from microtubule assessed as bound radioligand level at 20 uM treated after radioligand addition by competitive binding assay
[18] = Induction of mitotic cell cycle arrest in potoroo PtK2 cells assessed as accumulation of cells at SubG1 phase at 2 uM after 7 hrs by flow cytometry (Rvb= 2.4%); format: functional, Potorous tridactylus
[19] = Induction of mitotic cell cycle arrest in potoroo PtK2 cells assessed as accumulation of cells at G2+M phase at 5 uM treated for 7 hrs, washed followed by 48 hrs incubation by flow cytometry (Rvb= 22.3%); format: functional, Potorous tridactylus
[20] = Induction of micronucleation in potoroo PtK2 cells at 5 uM treated for 7 hrs followed by compound washout measured after 16 hrs by flow cytometry; format: functional, Potorous tridactylus
[21] = Induction of mitotic cell cycle arrest in potoroo PtK2 cells assessed as accumulation of cells at G1/G0 phase at 5 uM after 7 hrs by flow cytometry (Rvb= 60%); format: functional, Potorous tridactylus
PtK2 [22] = test: Induction of micronucleation in potoroo PtK2 cells at 2 uM treated for 7 hrs followed by compound washout measured after 16 hrs by flow cytometry; details: Potorous tridactylus
PtK2 [23] = test: Induction of microtubule bundle formation in potoroo PtK2 cells at 2 uM treated for 7 hrs followed by compound washout measured after 48 hrs by flow cytometry; format: cell-based; details: Potorous tridactylus
[24] = Cytotoxicity against human A2780AD cells; format: functional, cell-based; details: A2780 ADR
[25] = Induction of mitotic cell cycle arrest in potoroo PtK2 cells assessed as accumulation at S phase at 5 uM after 7 hrs by flow cytometry (Rvb= 15.5%); format: functional, Potorous tridactylus
A549 [26] = test: Induction of mitotic cell cycle arrest in human A549 cells assessed as accumulation at S phase at 100 nM after 24 hrs by flow cytometry (Rvb= 16%); format: functional
A2780 = test: Induction of mitotic cell cycle arrest in human A2780 cells assessed as accumulation of cells at G2+M phase at 100 nM after 24 hrs by flow cytometry (Rvb= 20%); format: functional
[27] = Induction of mitotic cell cycle arrest in potoroo PtK2 cells assessed as accumulation of cells at G1/G0 phase at 2 uM after 7 hrs by flow cytometry (Rvb= 15.5%); format: functional, Potorous tridactylus
[28] = Induction of mitotic cell cycle arrest in potoroo PtK2 cells assessed as accumulation of cells at SubG1 phase at 2 uM treated for 7 hrs, washed followed by 16 hrs incubation by flow cytometry (Rvb= 2%); format: functional, Potorous tridactylus
[29] = Cytotoxicity against human 1A9PTX22 cells; format: functional, cell-based; details: 1A9/ptx-22
A549 [30] = test: Induction of mitotic cell cycle arrest in human A549 cells assessed as accumulation of cells at G2+M phase at 100 nM after 24 hrs by flow cytometry (Rvb= 19.6%); format: functional
[31] = Binding affinity to microtubule at 30 uM after 30 mins by HPLC-MS analysis
[32] = Induction of mitotic cell cycle arrest in potoroo PtK2 cells assessed as accumulation of cells at G2+M phase at 5 uM treated for 7 hrs, washed followed by 16 hrs incubation by flow cytometry (Rvb= 23%); format: functional, Potorous tridactylus
[33] = Induction of mitotic cell cycle arrest in human A2780AD cells assessed as accumulation of cells at SubG1 phase at 100 nM after 24 hrs by flow cytometry (Rvb= 4.1%); format: functional, A2780 ADR
[34] = Induction of mitotic cell cycle arrest in potoroo PtK2 cells assessed as accumulation at 100 nM after 24 hrs by flow cytometry (Rvb= 26.3%)
[35] = Induction of mitotic cell cycle arrest in potoroo PtK2 cells assessed as accumulation of cells at SubG1 phase at 5 uM treated for 7 hrs, washed followed by 48 hrs incubation by flow cytometry (Rvb= 1.1%); format: functional, Potorous tridactylus
PtK2 [36] = test: Induction of micronucleation in potoroo PtK2 cells at 2 uM treated for 7 hrs followed by compound washout measured after 48 hrs by flow cytometry; format: functional, cell-based; details: Potorous tridactylus

Structure (SMILES): CC1=C[C@H]2[C@@H](O)[C@H](C)[C@@H](O)[C@@H]2[C@H]2[C@@H]3C4=C5O[C@](C)(CC[C@@H](OC4=O)[C@H]5C)[C@@H]3C[C@@H]12 [CYCLOSTREPTIN]
- Activity [1]: 2.3%
- IC50 [2]: 44 nM
- Activity [3]: 4.6%
- Activity [4]: 71%
- Activity [5]: 12.6%
- Activity (PtK2 [6]): Active
- Activity [7]: 59%
- Activity [8]: 32%
- Activity [9]: 75%
- Activity [10]: 8.6%
- Activity (PtK2 [11]): Active
- Activity [12]: 17%
- Activity [13]: 35%
- Activity [14]: 79%
- Activity [15]: 9.4%
- Activity [16]: 18.5%
- Activity [17]: 60%
- Activity [18]: 2.6%
- Activity [19]: 77.1%
- Activity [20]: 70%
- Activity [21]: 45.2%
- Activity (PtK2 [22]): 70%
- Activity (PtK2 [23]): Active
- IC50 [24]: 51 nM
- Activity [25]: 17.5%
- Activity (A549 [26]): 9%
- Activity (A2780): 61%
- Activity [27]: 18%
- Activity [28]: 3.5%
- IC50 [29]: 58 nM
- Activity (A549 [30]): 72%
- Activity [31]: Active
- Activity [32]: 65.5%
- Activity [33]: 16.4%
- Activity [34]: 65%
- Activity [35]: 5.4%
- Activity (PtK2 [36]): Active

Source: ChEMBL document CHEMBL1240321, “Cyclostreptin binds covalently to microtubule pores and lumenal taxoid binding sites” (Nat Chem Biol, 2007)
